# Assays:
# Assay type in all cases: biochemical
# [1] = target: T1, LATS1 (Homo sapiens, UniProt O95835); experiment: RBC HotSpot kinase assay (33P-ATP, P81 filter-binding), LATS1; details: Table 28, biochemical kinase assay; read-out: LATS1 IC50
# T1 sequence (O95835 1-1130): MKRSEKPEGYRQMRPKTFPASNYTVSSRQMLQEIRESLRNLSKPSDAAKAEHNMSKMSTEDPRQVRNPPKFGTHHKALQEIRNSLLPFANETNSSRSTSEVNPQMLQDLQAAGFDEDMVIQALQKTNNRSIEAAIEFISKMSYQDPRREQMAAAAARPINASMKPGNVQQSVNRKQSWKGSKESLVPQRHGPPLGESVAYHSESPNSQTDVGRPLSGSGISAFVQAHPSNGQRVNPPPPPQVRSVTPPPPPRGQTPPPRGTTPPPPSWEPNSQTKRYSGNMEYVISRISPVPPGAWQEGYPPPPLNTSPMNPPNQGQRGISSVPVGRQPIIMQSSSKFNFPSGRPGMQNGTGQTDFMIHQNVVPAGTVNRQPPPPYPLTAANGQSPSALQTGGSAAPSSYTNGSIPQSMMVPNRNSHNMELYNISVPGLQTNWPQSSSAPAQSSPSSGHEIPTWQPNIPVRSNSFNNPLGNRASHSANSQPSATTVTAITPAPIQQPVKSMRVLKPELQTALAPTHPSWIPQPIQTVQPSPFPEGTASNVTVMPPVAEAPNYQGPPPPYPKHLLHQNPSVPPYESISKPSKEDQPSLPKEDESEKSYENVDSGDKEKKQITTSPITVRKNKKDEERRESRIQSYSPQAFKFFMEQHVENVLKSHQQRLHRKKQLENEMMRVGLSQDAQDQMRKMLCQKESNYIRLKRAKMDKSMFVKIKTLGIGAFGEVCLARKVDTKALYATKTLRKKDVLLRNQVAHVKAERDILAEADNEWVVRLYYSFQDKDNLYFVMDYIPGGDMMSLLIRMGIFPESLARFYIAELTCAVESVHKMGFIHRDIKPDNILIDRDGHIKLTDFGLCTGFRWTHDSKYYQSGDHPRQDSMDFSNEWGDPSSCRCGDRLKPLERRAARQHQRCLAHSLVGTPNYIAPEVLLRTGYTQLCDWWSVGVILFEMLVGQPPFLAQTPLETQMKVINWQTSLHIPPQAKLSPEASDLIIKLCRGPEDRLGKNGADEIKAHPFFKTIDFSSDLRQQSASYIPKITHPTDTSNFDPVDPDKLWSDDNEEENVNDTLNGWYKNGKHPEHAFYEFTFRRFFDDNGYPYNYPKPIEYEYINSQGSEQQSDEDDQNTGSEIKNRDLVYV
# How it was run: (§1)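 Substrate in fresh buffer receives cofactors, then kinase, then compound in DMSO for a 20 min room-temperature preincubation. Reactions start with 33P-ATP and run 2 h; phosphorylation is read by P81 filter binding, and IC50 comes from a 10-point curve.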
# [2] = target: T2, LATS2 (Homo sapiens, UniProt Q9NRM7); experiment: RBC HotSpot kinase assay (33P-ATP, P81 filter-binding), LATS2; details: Table 28, biochemical kinase assay; read-out: LATS2 IC50
# T2 sequence (Q9NRM7 1-1088): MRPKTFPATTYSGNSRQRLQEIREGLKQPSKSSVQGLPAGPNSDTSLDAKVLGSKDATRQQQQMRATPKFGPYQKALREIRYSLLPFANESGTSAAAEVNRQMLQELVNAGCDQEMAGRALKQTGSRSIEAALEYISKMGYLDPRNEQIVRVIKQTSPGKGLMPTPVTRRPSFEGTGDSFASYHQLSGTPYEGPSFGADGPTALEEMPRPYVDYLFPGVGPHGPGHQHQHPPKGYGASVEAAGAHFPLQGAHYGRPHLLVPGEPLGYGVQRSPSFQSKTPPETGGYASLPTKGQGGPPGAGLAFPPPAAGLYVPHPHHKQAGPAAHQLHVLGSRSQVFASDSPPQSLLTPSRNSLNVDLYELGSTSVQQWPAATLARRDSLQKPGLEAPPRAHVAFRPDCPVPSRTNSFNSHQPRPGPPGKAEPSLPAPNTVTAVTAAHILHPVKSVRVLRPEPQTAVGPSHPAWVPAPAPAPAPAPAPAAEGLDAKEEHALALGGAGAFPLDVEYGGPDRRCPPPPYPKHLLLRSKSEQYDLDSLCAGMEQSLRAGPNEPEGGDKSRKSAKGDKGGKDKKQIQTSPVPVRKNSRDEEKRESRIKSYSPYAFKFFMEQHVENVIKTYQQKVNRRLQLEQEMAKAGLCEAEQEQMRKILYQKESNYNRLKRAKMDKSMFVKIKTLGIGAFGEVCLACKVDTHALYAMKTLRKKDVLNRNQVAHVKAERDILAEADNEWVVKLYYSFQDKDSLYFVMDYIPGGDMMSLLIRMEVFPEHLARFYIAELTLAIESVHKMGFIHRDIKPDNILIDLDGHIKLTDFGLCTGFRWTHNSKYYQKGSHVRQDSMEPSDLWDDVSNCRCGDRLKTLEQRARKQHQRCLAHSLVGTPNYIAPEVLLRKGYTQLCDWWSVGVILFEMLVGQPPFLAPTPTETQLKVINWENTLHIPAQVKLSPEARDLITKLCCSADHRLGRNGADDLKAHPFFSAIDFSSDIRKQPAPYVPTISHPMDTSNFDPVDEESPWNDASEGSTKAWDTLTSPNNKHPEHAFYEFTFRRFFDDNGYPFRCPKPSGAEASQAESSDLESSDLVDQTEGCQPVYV
# How it was run: as §1
# [3] = target: AKT (Homo sapiens, UniProt P31749); experiment: RBC HotSpot kinase assay (33P-ATP, P81 filter-binding), AKT; details: Table 28, biochemical kinase assay; read-out: AKT IC50
# Chain of AKT (P31749 whole entry): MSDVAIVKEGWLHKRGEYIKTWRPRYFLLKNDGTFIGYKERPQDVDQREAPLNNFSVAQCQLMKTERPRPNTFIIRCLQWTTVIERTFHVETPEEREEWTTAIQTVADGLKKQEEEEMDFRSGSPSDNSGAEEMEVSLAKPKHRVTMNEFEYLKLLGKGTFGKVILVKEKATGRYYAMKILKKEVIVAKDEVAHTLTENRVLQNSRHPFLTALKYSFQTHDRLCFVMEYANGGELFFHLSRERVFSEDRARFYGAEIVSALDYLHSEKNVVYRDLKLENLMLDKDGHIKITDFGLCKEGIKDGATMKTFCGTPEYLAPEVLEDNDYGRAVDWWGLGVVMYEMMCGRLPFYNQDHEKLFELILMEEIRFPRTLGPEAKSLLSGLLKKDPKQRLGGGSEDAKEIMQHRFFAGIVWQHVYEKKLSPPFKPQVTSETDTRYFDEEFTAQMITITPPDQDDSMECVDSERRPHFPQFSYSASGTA
# How it was run: as §1
SMILES,IC50 [1] [nM],IC50 [2] [nM],IC50 [3] [nM]
"Cc1cc(-c2ccnc3[nH]cc(F)c23)ccc1CN [Compound 211, (4-(3-fluoro-1H-pyrrolo[2,3-b]pyridin-4-yl)-2-methylphenyl) methanamine]",3.7,5.5,312
"NCc1ccc(-c2ccnc3[nH]cc(-c4ccccc4)c23)cc1-c1ccccc1 [Compound 219, (5-(3-phenyl-1H-pyrrolo[2,3-b]pyridin-4-yl)-[1,1′-biphenyl]-2-yl)methanamine]",39,128,394
"COC(=O)c1c[nH]c2nccc(-c3ccc(CN)cc3)c12 [Compound 223, methyl 4-(4-(aminomethyl)phenyl)-1H-pyrrolo[2,3-b]pyridine-3-carboxylate]",27.4,1420,13
"Cc1cccc(-c2c[nH]c3nccc(-c4ccc(CN)cc4)c23)c1 [Compound 230, (4-(3-(m-tolyl)-1H-pyrrolo[2,3-b]pyridin-4-yl)phenyl) methanamine]",17,16,1200
"CC(C)(N)c1ccc(-c2ccnc3[nH]cc(F)c23)cc1 [Compound 238, 2-(4-(3-fluoro-1H-pyrrolo[2,3-b]pyridin-4-yl)phenyl)propan-2-amine]",1.1,1.2,229
"NCc1ccc(-c2ccnc3[nH]cc(-c4cccnc4)c23)cc1 [Compound 245, (4-(3-(pyridin-3-yl)-1H-pyrrolo[2,3-b]pyridin-4-yl)phenyl) methanamine]",12,24,751
"NCc1ccc(-c2ccnc3[nH]cc(-c4ccccc4)c23)cc1 [Compound 253, (4-(3-phenyl-1H-pyrrolo[2,3-b]pyridin-4-yl)phenyl) methanamine]",13,5,983
"Cc1cc(-c2ccnc3[nH]cc(Cl)c23)ccc1CN [Compound 254, (4-(3-chloro-1H-pyrrolo[2,3-b]pyridin-4-yl)-2-methylphenyl) methanamine]",3.4,5.2,116
"Cc1cc(-c2ccnc3[nH]ccc23)ccc1CN [Compound 266, (2-methyl-4-(1H-pyrrolo[2,3-b]pyridin-4-yl)phenyl) methanamine]",6,5,249
"c1cc(-c2ccc3c(c2)CCNC3)c2cc[nH]c2n1 [Compound 267, 6-(1H-pyrrolo[2,3-b]pyridin-4-yl)-1,2,3,4-tetrahydroiso-quinoline]",11,10,308
"c1cc(-c2ccc(C3CCCCN3)cc2)c2cc[nH]c2n1 (stereo not drawn) [Compound 271, 4-(4-(piperidin-2-yl)phenyl)-1H-pyrrolo[2,3-b]pyridine]",20,25,428
"NCc1ccc(-c2ccnc3[nH]cc(F)c23)cc1 [Compound 275, (4-(3-fluoro-1H-pyrrolo[2,3-b]pyridin-4-yl)phenyl) methanamine]",13,8.4,266
"NCc1ccc(-c2ccnc3[nH]cc(Cl)c23)cc1 [Compound 276, (4-(3-chloro-1H-pyrrolo[2,3-b]pyridin-4-yl)phenyl) methanamine]",12,5.8,167
"NCc1ccc(-c2ccnc3[nH]ccc23)cc1C(F)(F)F [Compound 284, (4-(1H-pyrrolo[2,3-b]pyridin-4-yl)-2-(trifluoromethyl)phenyl) methanamine]",10,45,1150
"NCc1ccc(-c2ccnc3[nH]ccc23)cc1 [Compound 287, (4-(1H-pyrrolo[2,3-b]pyridin-4-yl)phenyl) methanamine]",23,34,1030
"Cc1cc(-c2ccnc3[nH]cc(F)c23)cc(F)c1[C@@]1(O)[C@H](C)CN(C)C[C@@H]1C [Compound 304, (3S,4s,5R)-4-(2-fluoro-4-(3-fluoro-1H-pyrrolo[2,3-b]pyridin-4-yl)-6-methylphenyl)-1,3,5-trimethylpiperidin-4-ol]",5.1,4,271
"Cc1cc(-c2ccnc3[nH]cc(F)c23)cc(F)c1[C@@]1(O)[C@H](C)CN(C(C)C)C[C@@H]1C [Compound 305, (3S,4s,5R)-4-(2-fluoro-4-(3-fluoro-1H-pyrrolo[2,3-b]pyridin-4-yl)-6-methylphenyl)-1-isopropyl-3,5-dimethylpiperidin-4-ol]",4.1,3.7,758
"COC(=O)c1c[nH]c2nccc(-c3cc(C)c([C@@]4(O)[C@H](C)CN(C5CCS(=O)(=O)CC5)C[C@@H]4C)c(F)c3)c12 [Compound 309, methyl 4-(4-((3S,4s,5R)-1-(1,1-dioxidotetrahydro-2H-thiopyran-4-yl)-4-hydroxy-3,5-dimethylpiperidin-4-yl)-3-fluoro-5-methylphenyl)-1H-pyrrolo[2,3-b]pyridine-3-carboxylate]",3.1,3,2270
"COC(=O)c1c[nH]c2nccc(-c3cc(C)c([C@@]4(O)[C@H](C)CN(C(=O)CN)C[C@@H]4C)c(F)c3)c12 [Compound 310, methyl 4-(3-fluoro-4-((3S,4s,5R)-1-glycyl-4-hydroxy-3,5-dimethylpiperidin-4-yl)-5-methylphenyl)-1H-pyrrolo[2,3-b]pyridine-3-carboxylate]",5.1,2.3,4420
"Cc1cc(-c2ccnc3[nH]cc(F)c23)cc(F)c1[C@@]1(O)[C@H](C)CN(C(=O)[C@H](N)CO)C[C@@H]1C [Compound 312, (R)-2-amino-1-((3S,4R,5R)-4-(2-fluoro-4-(3-fluoro-1H-pyrrolo[2,3-b]pyridin-4-yl)-6-methylphenyl)-4-hydroxy-3,5-dimethylpiperidin-1-yl)-3-hydroxypropan-1-one]",8.1,3.5,153
"Cc1cc(-c2ccnc3[nH]cc(F)c23)cc(F)c1[C@@]1(O)[C@H](C)CN(C(=O)[C@@H](CO)N(C)C)C[C@@H]1C [Compound 313, (R)-2-(dimethylamino)-1-((3S,4S,5R)-4-(2-fluoro-4-(3-fluoro-1H-pyrrolo[2,3-b]pyridin-4-yl)-6-methylphenyl)-4-hydroxy-3,5-dimethylpiperidin-1-yl)-3-hydroxypropan-1-one]",4.4,1.6,312

# — patent publication US20250361230A1, “LATS Inhibitors and Uses Thereof” (The USA, as Represented by the Secretary, Dept. of Heath …, priority 2022, published 2025)
